The values below come from US20250206778A1, “PEPTIDE HAVING ANTIDIABETIC ACTIVITY, PEPTIDE COMPLEX, AND USE THEREOF” (CAREGEN CO., LTD., priority 2022, published 2025).

Common to all, as to format: cell-based
The test system of one assay is phospho-IRS (Ser302). The assay is described as follows: Western blot of insulin signals in 3T3-L1 adipocytes (peptide of SEQ ID NO: 2). The note with it: rhTNF-α 2 nM, 2, 20 μg/ml, FIGS. 15a, 15b. How it is done: (§1) When 3T3-L1 preadipocytes reached 80% confluence, they were seeded in a 6-well plate at 5×10^5 cells/well and used for the experiment. Two days after reaching confluence, the culture medium was replaced with a differentiation induction medium [DMEM medium containing 10% FBS, 1 μg/ml insulin, 0.5 mM isobutyl methyl xanthine (IBMX) (Sigma, USA), and 1 μM dexamethasone (Sigma, USA)], and differentiation into adipocytes was induced. Two days after induction, preadipocytes were cultured for two days in a medium containing 10% FBS and 10 μg/mL insulin, and then the medium was replaced with a medium containing 10% FBS every two days until preadipocytes differentiated into adipocytes. When differentiation was completed, the medium was replaced with a serum-free medium, and cells were cultured for four hours to induce starvation. To the cells, each of rhTNF-α (2 nM), insulin (1 μg/ml), and the peptide of SEQ ID NO: 2 of Preparation Example 1 (2, 20 μg/ml) was added and the cells were cultured for one hour. The cells were cultured for 30 minutes, the cells of each treatment group were lysed by adding a lysis buffer, and then centrifuged at 4° C. and 12,000 rpm for 30 minutes. The obtained proteins were quantified using a BCA kit. Proteins were subjected to sodium dodecyl sulfate-polyacrylamide gel electrophoresis (SDS-PAGE) and electrotransferred to a membrane. The protein-attached membrane was blocked with 5% skim milk treatment, and then the primary antibody was reacted overnight at 4° C. The membrane was washed with PBS-T, the secondary antibody was reacted at room temperature for one hour, the membrane was washed again with PBS-T, and then visualization was carried out by using Gel Doc (Bio-Rad, Hercules, CA, USA) with a western detection reagent (Elpis Biotech, Daejeon, Korea). The antibodies used in the experiment are as follows: anti-phospho-IRS (Ser302) antibody (Cell signaling technology (CST), USA), anti-phospho-IRS (Tyr632) antibody (Cell signaling technology (CST), USA), anti-phospho-AKT antibody (Cell signaling technology (CST), USA), anti-phospho-AMPK antibody (Cell signaling technology (CST), USA), and anti-α-tubulin antibody (Santa Cruz Biotechnology, USA). […] In addition, it was confirmed that when the peptide of the present invention was treated, the phosphorylation of AMPK, an insulin sensitivity-increasing signaling protein, increased. Meanwhile, it was confirmed that phosphorylation of Ser302 of an insulin receptor substrate (IRS) decreased under an insulin resistance-inducing environment by the treatment of the present peptide, and thus insulin resistance was inhibited.
On the technique in general: A western blot detects proteins with antibodies after separation by electrophoresis.

The test system of another assay is phospho-IRS (Tyr632). The description is as above. The note with it: 2, 20 μg/ml, FIGS. 15a, 15b. How it is done:
as §1

The next assay concerns phospho-AMPK. Described as above. The note with it: 2, 20 μg/ml, FIGS. 15a, 15b. How it is done: as §1
In another assay the test system is phospho-AKT. The assay is described as above. The note with it: 2, 20 μg/ml, FIGS. 15a, 15b. How it is done: as §1
Assay [1] deals with phosphorylated hormone-sensitive lipase (pHSL). The assay is described as follows: Western blot of lipolytic enzyme proteins in 3T3-L1 adipocytes. The note with it: 2, 20 μg/ml, 1 h, FIGS. 13a, 13b. How it is done: (§2) Whether the peptide of SEQ ID NO: 2 prepared in Preparation Example 1 promotes the expressions of lipolytic enzyme proteins in adipocytes was tested through protein expression analysis (western blot analysis).
(§3) When 3T3-L1 preadipocytes reached 80% confluence, they were seeded in a 6-well plate at 5×10^5 cells/well and used for the experiment. Two days after reaching confluence, the culture medium was replaced with a differentiation induction medium [DMEM medium containing 10% FBS, 1 μg/ml insulin, 0.5 mM isobutyl methyl xanthine (IBMX) (Sigma, USA), and 1 μM dexamethasone (Sigma, USA)], and differentiation into adipocytes was induced. Two days after induction, preadipocytes were cultured for two days in a medium containing 10% FBS and 10 μg/mL insulin, and then the medium was replaced with a medium containing 10% FBS every two days until preadipocytes differentiated into adipocytes. When differentiation was completed, the medium was replaced with a serum-free medium, and cells were cultured for four hours to induce starvation. Cells were divided into an untreated group (negative control), the peptide of Preparation Example 1 (2, 20 μg/ml)-treatment group, and the TNFα (20 nM)-treatment group (positive control), and then treated with the substances at predetermined concentrations and cultured for one hour. Then, the cells in each treatment group were lysed by adding a lysis buffer. After lysis, proteins obtained by centrifugation at 4° C. and 12,000 rpm for 30 minutes were quantified using a BCA kit. Proteins were subjected to sodium dodecyl sulfate-polyacrylamide gel electrophoresis (SDS-PAGE) and electrotransferred to a membrane. The protein-attached membrane was blocked with 5% skim milk treatment, and then the primary antibody was reacted overnight at 4° C. The membrane was washed with PBS-T, the secondary antibody was reacted at room temperature for one hour, the membrane was washed again with PBS-T, and then visualization was carried out by using Gel Doc (Bio-Rad, Hercules, CA, USA) with a western detection reagent (Elpis Biotech, Daejeon, Korea). […]

A further assay relates to perilipin (PLIN). Described as above. The note with it: 2, 20 μg/ml, 1 h, FIGS. 13a, 13b. How it is done: as §2, §3
Assay [2] relates to adipose triglyceride lipase (ATGL). The assay is described as above. The note with it: 2, 20 μg/ml, 1 h, FIGS. 13a, 13b. How it is done: as §2, §3
For another assay, the system named is 3T3-L1 adipocytes. The assay is described as follows: Glycerol release assay (lipolysis) in 3T3-L1 adipocytes. The note with it: 2, 20 μg/ml, 48 h, FIG. 14. The method, then:
The release amount of glycerol, a lipolysis product, was analyzed to determine whether the peptide of SEQ ID NO: 2 prepared in Preparation Example 1 promotes lipolysis in adipocytes.
When 3T3-L1 preadipocytes reached 80% confluence, they were seeded in a 6-well plate at 5×10^5 cells/well and used for the experiment. Two days after reaching confluence, the culture medium was replaced with a differentiation induction medium [DMEM medium containing 10% FBS, 1 μg/ml insulin, 0.5 mM isobutyl methyl xanthine (IBMX) (Sigma, USA), and 1 μM dexamethasone (Sigma, USA)], and differentiation into adipocytes was induced. Two days after induction, preadipocytes were cultured for two days in a medium containing 10% FBS and 10 μg/mL insulin, and then the medium was replaced with a medium containing 10% FBS every two days until preadipocytes differentiated into adipocytes. When differentiation was completed, the medium was replaced with a serum-free medium, and cells were cultured for four hours to induce starvation. Cells were divided into an untreated group (negative control), the peptide of SEQ ID NO: 2 of Preparation Example 1 (2, 20 μg/ml)-treatment group, and the TNF-α (20 nM)-treatment group (positive control), and then treated with the substances at predetermined concentrations and cultured for 48 hours. Then, the supernatants were obtained. […]

Take KGSATGWMA [peptide of SEQ ID NO: 2]: the “phosphorylation of Ser302 of insulin receptor substrate (IRS) under an insulin resistance-inducing environment” value in the assay with phospho-IRS (Ser302) is recorded as “decreased”. In the assay on phospho-IRS (Tyr632), the “phosphorylation of Tyr632 of insulin receptor substrate (IRS)” value is “promoted”. Moreover, in the assay with phospho-AMPK, the “phosphorylation of AMPK” value is on record as “increased”. Also, the “activation of phosphorylation-AKT” value in the assay on phospho-AKT is “promoted”. Also, the “expression of phosphorylated hormone-sensitive lipase (pHSL)” value in assay [1] is “increased”. Further, the “expression of perilipin (PLIN)” value in the assay on perilipin (PLIN) was “increased”. Further, the “expression of adipose triglyceride lipase (ATGL)” value in assay [2] is “increased”. For the same sequence, in the assay with 3T3-L1 adipocytes, the “release amount of glycerol, a lipolysis product” value is “increased in a treated peptide concentration-dependent manner”.
